Test results taken from patent publication US20060115816A1, “Splice variant cannabinoid receptor (cb1b)” (priority 2002, published 2006).
Where two headings read alike, the source gives them in different places.

Legend:
hCB2 = biological target: T1, hCB2 (Homo sapiens, UniProt P34972); assay: GTPγ[35S] binding assay, agonist properties on hCB2; type: biochemical
T1 construct: expressed in transfected cells

hCB1a = biological target: T2, hCB1a (Homo sapiens, UniProt P21554); assay: biochemical; type: biochemical
T2 construct: expressed in transfected cells

hCB1 = biological target: T3, hCB1 (Homo sapiens, UniProt P21554); assay: biochemical; type: biochemical
T3 construct: expressed in transfected cells

hCB1b [1] = biological target: T4, hCB1b (Homo sapiens, UniProt P21554); assay: biochemical; type: biochemical
T4 construct: expressed in transfected cells

[2] = biological target: T5, un-spliced human CB 1 receptor (Homo sapiens, UniProt P21554); assay: FLIPR intracellular calcium mobilization assay (Fluo-3), HEK-293S cells expressing un-spliced hCB1 receptor and Gα16; type: cell-based
T5 construct: expressed in transfected cells

hCB1b [3] = biological target: T4, hCB1b; assay: FLIPR intracellular calcium mobilization assay (Fluo-3), HEK-293S cells expressing human CB1b receptor and Gα16; type: cell-based
Method: In order to assess the functionality of the human CB1b receptor variant, a functional assay was performed with FLIPR (Fluorescent Imaging Plate Reader, Molecular Devices) using the fluorescent calcium indicator Fluo-3 (Molecular Probes) on a 96 well platform. […] On the day of the experiment, the cells were initially washed once with Hank's buffer (pH7.4) containing 20 mM Hepes and 0.1% BSA (HBSS buffer) and subsequently loaded with fluorescent solution (HBSS buffer, 4 μM Fluor-3 and 0.04% pluronic acid). The cells were incubated at 37° C. for 1 hour in a humidified chamber. Following the incubation step, cells were washed five times with HBSS buffer. […] A range of other natural and synthetic cannabinoid ligands were also tested.

[4] = agonist, GTPγ[35S] binding assay, read-out: EC50 hCB1a
[5] = agonist, GTPγ[35S] binding assay, read-out: EC50 hCB1
[6] = agonist, GTPγ[35S] binding assay, read-out: EC50 hCB1b

T2 sequence (P21554 1-411 isoform P21554-2): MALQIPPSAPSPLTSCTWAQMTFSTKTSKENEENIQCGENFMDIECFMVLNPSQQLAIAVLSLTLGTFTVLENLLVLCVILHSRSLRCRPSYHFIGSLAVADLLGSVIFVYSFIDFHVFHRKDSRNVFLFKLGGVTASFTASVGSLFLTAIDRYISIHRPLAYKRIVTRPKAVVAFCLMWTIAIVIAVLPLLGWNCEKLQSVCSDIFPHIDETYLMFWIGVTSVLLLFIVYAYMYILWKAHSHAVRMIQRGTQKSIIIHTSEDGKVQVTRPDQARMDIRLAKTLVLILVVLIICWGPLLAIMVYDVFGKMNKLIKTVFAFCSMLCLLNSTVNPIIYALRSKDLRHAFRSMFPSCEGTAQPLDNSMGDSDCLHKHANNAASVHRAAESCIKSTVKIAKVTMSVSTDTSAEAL
T1 sequence (P34972 whole entry): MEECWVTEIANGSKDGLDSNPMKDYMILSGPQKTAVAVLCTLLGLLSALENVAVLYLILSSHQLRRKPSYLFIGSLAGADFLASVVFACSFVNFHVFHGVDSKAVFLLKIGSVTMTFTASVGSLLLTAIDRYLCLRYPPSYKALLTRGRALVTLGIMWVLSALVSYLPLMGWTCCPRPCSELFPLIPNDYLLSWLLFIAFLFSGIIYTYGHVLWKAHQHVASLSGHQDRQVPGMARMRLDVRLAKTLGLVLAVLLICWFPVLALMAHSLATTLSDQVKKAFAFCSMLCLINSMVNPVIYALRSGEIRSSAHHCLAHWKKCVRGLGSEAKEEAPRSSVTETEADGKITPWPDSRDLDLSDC
T3 sequence (P21554 whole entry): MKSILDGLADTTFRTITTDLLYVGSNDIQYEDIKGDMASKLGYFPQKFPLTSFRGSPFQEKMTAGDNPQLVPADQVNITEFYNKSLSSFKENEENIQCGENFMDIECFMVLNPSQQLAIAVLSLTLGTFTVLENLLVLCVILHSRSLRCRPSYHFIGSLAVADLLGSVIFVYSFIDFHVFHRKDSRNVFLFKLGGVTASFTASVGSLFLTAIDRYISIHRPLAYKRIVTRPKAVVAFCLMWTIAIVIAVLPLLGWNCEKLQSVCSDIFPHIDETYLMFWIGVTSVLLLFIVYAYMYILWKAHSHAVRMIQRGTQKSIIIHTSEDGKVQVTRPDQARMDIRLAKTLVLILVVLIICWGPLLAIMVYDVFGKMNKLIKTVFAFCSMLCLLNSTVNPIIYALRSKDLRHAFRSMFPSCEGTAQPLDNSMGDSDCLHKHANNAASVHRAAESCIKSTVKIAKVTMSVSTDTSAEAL
T4 sequence (P21554 1-439 isoform P21554-3): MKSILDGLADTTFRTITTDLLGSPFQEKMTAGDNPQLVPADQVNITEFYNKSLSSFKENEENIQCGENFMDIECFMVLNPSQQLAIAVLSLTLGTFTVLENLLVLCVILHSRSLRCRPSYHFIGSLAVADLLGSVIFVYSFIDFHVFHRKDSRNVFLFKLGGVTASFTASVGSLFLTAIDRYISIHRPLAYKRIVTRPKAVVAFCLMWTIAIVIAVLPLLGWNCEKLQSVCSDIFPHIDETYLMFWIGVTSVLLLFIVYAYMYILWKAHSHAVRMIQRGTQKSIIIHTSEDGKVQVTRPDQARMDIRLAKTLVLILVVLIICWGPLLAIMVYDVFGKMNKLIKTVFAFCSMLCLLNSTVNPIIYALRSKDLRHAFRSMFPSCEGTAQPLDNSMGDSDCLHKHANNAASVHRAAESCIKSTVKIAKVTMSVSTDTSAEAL
T5 sequence (P21554 whole entry, canonical isoform): as the sequence (P21554 whole entry) above

Structure (SMILES) | EC50 (hCB2) [nM] | EC50 (hCB1a; [4]) [nM] | EC50 (hCB1; [5]) [nM] | EC50 (hCB1b [1]; [6]) [nM] | also measured
CCCC(C)(C)c1ccc2c(c1)OC(C)(C)[C@@H]1CC=C(C)C[C@@H]21 [JWH133] | 1.8 | > 1000 | > 1000 | > 1000 | –
CCCCC/C=C\C/C=C\C/C=C\C/C=C\CCCCOC(CO)CO [Noladin Ether] | > 1000 | – | – | – | EC50 (hCB1a; read-out: EC50 hCB1a): > 1000 nM; EC50 (hCB1; read-out: EC50 hCB1): 5.1 nM; EC50 (hCB1b [1]; read-out: EC50 hCB1b): > 1000 nM
CCCCC/C=C\C/C=C\C/C=C\C/C=C\CCCC(=O)OC(CO)CO [2-arachodonylglycerol] | 1690 | – | – | – | –
CCCCCCCCCCCCCCCC(=O)NCCO [Palmitoylethanolamine] | 349 | > 1000 | > 1000 | > 1000 | –
CCCCC/C=C\C/C=C\C/C=C\C/C=C\CCCC(=O)OCCN [Virodhamine] | 1310 | > 1000 | 934 | > 1000 | –
CCCCCCC(C)(C)c1cc(O)c2c(c1)OC(C)(C)[C@@H]1CC=C(CO)C[C@@H]21 [Hu210] | – | – | – | – | EC50 [2]: 0.06 nM; EC50 (hCB1b [3]): 0.15 nM; EC50 (hCB1a): 0.2 nM; EC50 (hCB1): 0.06 nM; EC50 (hCB1b [1]): 0.15 nM
